{
  "source": "patent US20150051264A1",
  "about": "“INHIBITORS OF NOX4 EXPRESSION AND /OR NOX4 FUNCTION AND THEIR USE IN THE PREVENTION AND TREATMENT OF NERVE INJURY AND/OR NEUROPATHIC PAIN” (FRAUNHOFER-GESELLSCHAFT ZUR FOERDERUNG DER ANGEWANDTEN …, priority 2011, published 2015)",
  "key": {"Nox4-CreERT2 mice": {"tested_on": "Nox4-CreERT2 mice", "assay": "Mechanical allodynia (paw withdrawal latency) in the spared nerve injury (SNI) model after tamoxifen induction", "assay_type": "in vivo, mouse", "conditions": "tamoxifen 1 mg/d i.p. for 3 d starting 10 d after SNI, observed up to 21 d, no effect in the first 7 d or in tamoxifen-treated control mice", "method": "Mechanical paw sensitivity. Paw withdrawal latency after mechanical stimulation was measured with an automated von Frey-type testing device (Dynamic Plantar Aesthesiometer; Ugo Basile) which allows for reliable detection of mechanical sensitivity in mice (Schmidtko et al., 2008). The stainless steel probe of the touch stimulator unit was pushed against the paw with ascending force until a strong and immediate withdrawal occurred. The maximum force was set at 5 g and the ramp speed was 0.5 g/s. The paw withdrawal latency was calculated as the mean of 4-6 measurements with at least 20 s in between.\nNeuropathic pain. The “spared nerve injury” (SNI) model and the “chronic constriction injury” (CCI) model were used to investigate neuropathic pain behavior. Surgery was carried out under isoflurane anaesthesia. For SNI, two branches of the sciatic nerve were ligated and cut distally, leaving the sural nerve intact (Decosterd and Woolf, 2000). […]\n(§1) Global gene ablation may cause developmental compensatory adaptations that might affect phenotypic changes in the genetically manipulated adult animal. […] Ten days after SNI, mice were i.p. injected with tamoxifen (1 mg/d for 3 d) to activate Cre recombinase and knock-down Nox4, and paw withdrawal latency times were measured up to 21 d after the first injection."}, "Nox4 mRNA": {"tested_on": "Nox4 mRNA", "assay": "Nox4 mRNA expression by quantitative real-time RT-PCR after tamoxifen induction in Nox4-CreERT2 mice", "assay_type": "in vivo, mouse", "conditions": "tamoxifen 1 mg/d i.p. for 3 d", "method": "Tamoxifen induction. Tamoxifen (Sigma Aldrich) was prepared by dissolving in ethanol (10 mg per 100 μl) and mixing this solution with 900 μl corn oil for a final concentration of 10 mg/ml. Eight- to ten-week-old Nox4-CreERT2 mice were i.p. injected with 100 μl tamoxifen solution (1 mg, corresponding to about 40 mg/kg tamoxifen) once a day at 10, 11 and 12 d after SNI.\nMice were exsanguinated under deep isoflurane anaesthesia, and tissues were dissected, snap frozen in liquid nitrogen and stored at −80° C. Total RNA from spinal cord, brain and DRGs was extracted under RNase-free conditions using a RNA isolation kit (for spinal cord and brain: RNeasy® Lipid Tissue Mini Kit; Qiagen; for DRGs: RNAqueous Micro Kit; Ambion) according to the manufacturer's instructions, DNase treated for 15 min to minimize genomic DNA contamination and quantified with a NanoDrop® ND-1000 spectrophotometer (NanoDrop® Technologies). cDNA was synthesized using 200 ng RNA, random hexamer primers, RT-Enhancer and the Verso®-enzyme of the Verso® Kit (Thermo Scientific). Real-time RT-PCR was performed with an ABI Prism® 7500 Sequence Detection System (Applied Biosystems) using TaqMan Gene Expression Assays for murine Nox4 (Mm01317086_ml), Nox1 (Mm00549170_m1), Nox2 (Mm01287742_m1), Nox3 (Mm01339132_m1), GAPDH (Mm99999915_μl) and β-actin (Mm00607939_s1), purchased from Applied Biosystems. […] Relative expression of target gene levels was determined using the comparative ΔΔCt method, with Ct indicating the cycle number at which the signal of the PCR product crosses an arbitrary threshold set within the exponential phase of the PCR. […]\nas §1"}},
  "data": [
    {"smiles": "CC/C(=C(\\c1ccccc1)c1ccc(OCCN(C)C)cc1)c1ccccc1", "note": "[tamoxifen, Tamoxifen]", "values": [
      {"measurement": "Mechanical allodynia (paw withdrawal latency after mechanical stimulation)", "setting": "Nox4-CreERT2 mice", "value": "gradually recovered from mechanical allodynia"},
      {"measurement": "Nox4 mRNA in DRGs as compared to vehicle-treated Nox4-CreERT2 mice", "setting": "Nox4 mRNA; Nox4-CreERT2 mice, SNI, 21 d after tamoxifen treatment, P=0.008", "value": 54, "unit": "%"},
      {"measurement": "Nox4 mRNA in the spinal cord as compared to vehicle-treated Nox4-CreERT2 mice", "setting": "Nox4 mRNA; Nox4-CreERT2 mice, SNI, 21 d after tamoxifen treatment, P=0.116", "value": 83, "unit": "%"},
      {"measurement": "Nox4 mRNA in DRGs, of baseline levels", "setting": "Nox4 mRNA; 21 d after treatment, no significant reduction in the spinal cord", "value": "~50", "unit": "%"}
    ]}
  ]
}
